For series [1], the system named is S. aureus wild type strain (ATCC 25923). Description: Antibiotic assay (absorption 660 nm, Example 2), S. aureus wild type. To be noted: for MIC: S. aureus WT (ATCC 25923); for S. aureus WT ATCC 25923 (toxicity on bacteria): Table 7, same values as MIC of Table 6. It is filed as cell-based, Staphylococcus aureus. The method, then:
(§1) Antibiotic agents. Gentamicin sulfate was provided by Calbiochem. Chloramphenicol was provided by Sigma-Aldrich.
(§2) Antibiotic assay. […] The bacteria strains were inoculated in nutrients broth. […] All bacteria were plated in nutrients broth at a concentration of 450 000 bacteria/m L.
(§3) Compounds IV to XXI were diluted in dimethylsulfoxide. […] The compounds were tested at 8 different concentrations.
(§4) Each well contained: 100 μL of bacteria, 100 μL of the compounds tested. The plates were incubated at 37° C. for 6 h. The absorption was read using a Varioskan flash multimode Reader™ (Thermo Scientific) at 660 nm.
(§5) MRSA. Ten (10) strains of MRSA obtained as described above were tested along with an S. aureus wild type (WT) strain (ATCC 25923).

The test system of a further series is MRSA strains. The series can be described thus: Antibiotic assay (absorption 660 nm, Example 2), MRSA strains. Type of series: cell-based, Staphylococcus aureus. The method, then:
as §1, §2, §3, §4, §5

A further series deals with WS-1 cell lines. The series can be described thus: Cytotoxicity assay on WS-1 (Example 2). It is filed as cell-based. Details: unit not given here. To be noted: Table 7; WS-1, 48 h. The method, then: Cytotoxicity assay. […] The WS-1 cell lines were provided by ATCC. […] The compounds tested were then added at 8 different concentrations. […] In Table 7, the therapeutic indexes of compounds IV to XXI are presented.

≈ marks a conversion by molar mass, not a printed value. Where only a bound is given, the exact number is not on record here.

In general, MIC refers to the smallest concentration in the dilution series that meets the test's criterion for growth inhibition. In the case of `O=C(CCc1ccccc1)c1c(O)cc(O)c2c1OC(c1ccc(O)cc1)CC2` (racemic) [IV], the minimal inhibitory concentration (MIC) in series [1] stood at 1.27 ± 0.06 µM (≈ 0.496 µg/mL); against MRSA strains (MRSA 1), 0.84 ± 0.04 µM (≈ 0.328 µg/mL); with MRSA strains (MRSA 2), 1.50 ± 0.06 µM (≈ 0.586 µg/mL); against MRSA strains (MRSA 3) it was 1.02 ± 0.06 µM (≈ 0.398 µg/mL); with MRSA strains (MRSA 4) it was 2.6 ± 0.2 µM (≈ 1.02 µg/mL); with MRSA strains (MRSA 5), 0.95 ± 0.01 µM (≈ 0.371 µg/mL). Also, the MIC in the series with MRSA strains (MRSA 6) worked out at 2.11 ± 0.07 µM (≈ 0.824 µg/mL); against MRSA strains (MRSA 7) it was 1.22 ± 0.04 µM (≈ 0.476 µg/mL); against MRSA strains (MRSA 8) it was 1.35 ± 0.05 µM (≈ 0.527 µg/mL); in the series with MRSA strains (MRSA 9) it was 1.32 ± 0.04 µM (≈ 0.515 µg/mL); in the series on MRSA strains (MRSA 10), 1.23 ± 0.08 µM (≈ 0.48 µg/mL). In addition, the “S. aureus WT ATCC 25923 (toxicity on bacteria)” value in series [1] was 1.27 ± 0.06. For the same compound, the “WS-1 (toxicity on normal cells, fibroblast)” value in the series with WS-1 cell lines came to 16 ± 2.

As to `COc1ccc(CCC(=O)c2c(O)cc(O)c3c2OC(c2ccc(O)cc2)CC3)cc1` (racemic) [VII], the MIC in series [1] was 2.2 ± 0.2 µM (≈ 0.925 µg/mL); in the series with MRSA strains (MRSA 1) it was 2.9 ± 0.1 µM (≈ 1.22 µg/mL); in the series with MRSA strains (MRSA 2), 2.5 ± 0.1 µM (≈ 1.05 µg/mL); against MRSA strains (MRSA 3) it was 1.7 ± 0.1 µM (≈ 0.715 µg/mL); with MRSA strains (MRSA 4), 2.4 ± 0.2 µM (≈ 1.01 µg/mL); against MRSA strains (MRSA 5), 2.0 ± 0.1 µM (≈ 0.841 µg/mL). Moreover, the minimal inhibitory concentration (MIC) against MRSA strains (MRSA 6) was 2.7 ± 0.1 µM (≈ 1.14 µg/mL); against MRSA strains (MRSA 7), 2.13 ± 0.02 µM (≈ 0.896 µg/mL); in the series on MRSA strains (MRSA 8) it was 2.2 ± 0.5 µM (≈ 0.925 µg/mL); with MRSA strains (MRSA 9) it was 2.5 ± 0.2 µM (≈ 1.05 µg/mL); in the series on MRSA strains (MRSA 10), 1.2 ± 0.2 µM (≈ 0.505 µg/mL). In series [1], the “S. aureus WT ATCC 25923 (toxicity on bacteria)” value came to 2.2 ± 0.2. For the same compound, the “WS-1 (toxicity on normal cells, fibroblast)” value in the series with WS-1 cell lines came out at 26.

With `O=C(CCc1ccccc1)c1c(O)cc2c(c1O)CC(O)C(c1ccc(O)cc1)O2` (racemic) [XIII], the MIC in series [1] stood at 3.2 ± 0.2 µM (≈ 1.3 µg/mL); in the series with MRSA strains (MRSA 1), 2.9 ± 0.2 µM (≈ 1.18 µg/mL); against MRSA strains (MRSA 2), 2.7 ± 0.1 µM (≈ 1.1 µg/mL); in the series on MRSA strains (MRSA 3), 7.8 ± 0.5 µM (≈ 3.17 µg/mL); against MRSA strains (MRSA 4) it was 6.8 ± 0.7 µM (≈ 2.76 µg/mL); in the series with MRSA strains (MRSA 5) it was 2.7 ± 0.3 µM (≈ 1.1 µg/mL). The MIC amounted to 5.4 ± 0.4 µM (≈ 2.19 µg/mL) in the series on MRSA strains (MRSA 6); 2.0 ± 0.2 µM (≈ 0.813 µg/mL) in the series with MRSA strains (MRSA 7); 3.4 ± 0.3 µM (≈ 1.38 µg/mL) in the series on MRSA strains (MRSA 8); 2.9 ± 0.1 µM (≈ 1.18 µg/mL) in the series on MRSA strains (MRSA 9); 4.2 ± 0.8 µM (≈ 1.71 µg/mL) in the series on MRSA strains (MRSA 10). Moreover, the “S. aureus WT ATCC 25923 (toxicity on bacteria)” value in series [1] is recorded as 3.2 ± 0.2. Besides, the “WS-1 (toxicity on normal cells, fibroblast)” value in the series with WS-1 cell lines amounted to 10.1 ± 0.8.

As for `COc1ccc(CCC(=O)c2c(O)cc(O)c3c2OC(c2ccc(O)cc2)C(O)C3)cc1` (racemic) [XIX], the MIC in series [1] amounted to 2.5 ± 0.1 µM (≈ 1.09 µg/mL); against MRSA strains (MRSA 1), 2.6 ± 0.1 µM (≈ 1.13 µg/mL); in the series with MRSA strains (MRSA 2), 2.4 ± 0.1 µM (≈ 1.05 µg/mL); against MRSA strains (MRSA 3), 4.3 ± 0.4 µM (≈ 1.88 µg/mL); against MRSA strains (MRSA 4), 2.9 ± 0.6 µM (≈ 1.27 µg/mL); with MRSA strains (MRSA 5) it was 3.1 ± 0.6 µM (≈ 1.35 µg/mL). The MIC with MRSA strains (MRSA 6) worked out at 2.8 ± 0.2 µM (≈ 1.22 µg/mL); with MRSA strains (MRSA 7), 2.6 ± 0.1 µM (≈ 1.13 µg/mL); with MRSA strains (MRSA 8), 2.7 ± 0.2 µM (≈ 1.18 µg/mL); in the series with MRSA strains (MRSA 9) it was 3.0 ± 0.3 µM (≈ 1.31 µg/mL); in the series on MRSA strains (MRSA 10) it was 2.56 ± 0.04 µM (≈ 1.12 µg/mL). The “S. aureus WT ATCC 25923 (toxicity on bacteria)” value in series [1] is listed as 2.5 ± 0.1. The “WS-1 (toxicity on normal cells, fibroblast)” value with WS-1 cell lines was found to be 8.2 ± 1.0.

For `O=C(CCc1ccccc1)c1c(O)cc(O)c2c1OC(c1ccc(O)cc1)C(O)C2` (racemic) [XVI], the MIC in series [1] is 5.9 ± 0.3 µM (≈ 2.4 µg/mL); against MRSA strains (MRSA 1), 5.6 ± 0.5 µM (≈ 2.28 µg/mL); in the series with MRSA strains (MRSA 2), 4.7 ± 0.4 µM (≈ 1.91 µg/mL); in the series on MRSA strains (MRSA 3), 5.1 ± 0.3 µM (≈ 2.07 µg/mL); in the series on MRSA strains (MRSA 4), 5.7 ± 0.4 µM (≈ 2.32 µg/mL); in the series on MRSA strains (MRSA 5), 4.1 ± 0.6 µM (≈ 1.67 µg/mL). Further, the minimal inhibitory concentration (MIC) amounted to 5.4 ± 0.7 µM (≈ 2.19 µg/mL) in the series with MRSA strains (MRSA 6); 3.5 ± 0.3 µM (≈ 1.42 µg/mL) in the series with MRSA strains (MRSA 7); 5.3 ± 0.6 µM (≈ 2.15 µg/mL) against MRSA strains (MRSA 8); 4.8 ± 0.2 µM (≈ 1.95 µg/mL) in the series with MRSA strains (MRSA 9); 3.3 ± 0.1 µM (≈ 1.34 µg/mL) in the series with MRSA strains (MRSA 10). Moreover, the “S. aureus WT ATCC 25923 (toxicity on bacteria)” value in series [1] came to 5.9 ± 0.3. Further, in the series with WS-1 cell lines, the “WS-1 (toxicity on normal cells, fibroblast)” value is on record as over 50.

Source of the values: patent publication US9499509B2, “Dihydrochalcone derivatives and their use as antibiotic agents” (UNIVERSITÉ DU QUÉBEC À CHICOUTIMI, priority 2012, dated 2016).
